Reference: US20100086546A1, “Toll-LIke Receptor 4 Deficiency and Downstream Effectors Cause Pulmonary Emphysema” (Yale University, priority 2007, published 2010)

Key:
Tlr4−/− MLECs = test: Elastolytic activity in Tlr4−/− MLECs treated with DPI, NAC or apocynin; format: cell-based, mouse; conditions: DPI 10 μM, NAC 100 μM, apocynin 10 μM; 24 hours
Method: MLECs were isolated by as described by Kuhlencordt et al. (Kuhlencordt P. J., et al., 2004, Am. J. Physiol. Cell Physiol. 286:C1195C1202.), with some modifications. Briefly, lungs were extracted, minced, and digested for 1 hour at 37° C. with 0.1% collagenase (Roche Diagnostics) in RPMI-1640 with 100 U/ml penicillin G and 100 μg/ml streptomycin. The digest was passed through a 100-μm cell strainer to remove undigested tissue fragments. Cells were pelleted at 200 g for 5 minutes; resuspended in MLEC medium containing 20% FBS, 40% DMEM, and 40% F12 with 100 U/ml penicillin G and 100 μg/ml streptomycin; and plated onto 0.1% gelatin-coated T75 flasks. Cells were washed after 24 hours and cultured for 2-4 days. Cells were trypsinized with 2 ml trypsin/EDTA, PBS added, and spun for 5 minutes at 200 g to remove the supernatant. Cells were resuspended in 2% FBS containing 10 μl biotin-labeled rat anti-mouse CD31 (PECAM-1) antibody (BD Biosciences—Pharmingen). After incubation on ice for 30 minutes, the cells were washed with streptavidin magnetic beads (New England Biolabs Inc.). Cells were washed with 2% FBS, resuspended in 5 ml of 2% FBS, and incubated on ice for 30 minutes. The cells were then placed on the magnet for 5 minutes, and unbound cells were removed while bound cells were resuspended in medium and plated onto a 0.1% gelatin-coated T25 flask. CD31 staining and flow cytometry confirmed that greater than 95% of the cells were endothelial cells. […]
The elastolytic activities in lung tissues, BAL, and cell lysates was determined by hydrolysis of insoluble elastin and detected spectrophotometrically using elastin-Congo red as a substrate according to the method described previously (Rust L., et al., 1994, Methods Enzymol. 235:554-562). […] The optical density of the supernatant was measured at 485 nm with a DYNEX Revelation version 3.2 spectrophotometer. The elastolytic activity was calculated as ng elastase/μg protein in the lysates according to the standard curve established by the reaction of porcine elastase and elastin-Congo red.

Tlr4−/− mice [1] = test: Total antioxidant capacity in BAL and serum of Tlr4−/− mice on antioxidant therapy; format: in vivo, mouse; conditions: NAC 1 g/kg or apocynin 3 mg/kg in drinking water from 3 weeks, sacrificed at 3 months; for total antioxidant content in serum: serum (data not shown)
Excerpt: Tlr4^−/− and MyD88^−/− mice have been previously described (Zhang X., et al., 2005, J. Immunol. 175:4834-4838; Adachi O., et al., 1998, Immunity. 9:143-150; Hoshino K., et al., 1999, J. Immunol. 162:3749-3752). TLR4-deficient mouse lines C3H/HeJ and C57BL/10ScNJ and their respective controls were purchased from The Jackson Laboratory. C57BL/6J Tlr4^−/− mice were generated after greater than 10 generations of backcrossing onto a C57BL/6J background. WT littermates were used as controls. For antioxidant therapy, Tlr4^−/− mice were randomized into 3 groups at 3 weeks of age—NAC (1 g/kg body weight; Sigma-Aldrich) (apocynin (3 mg/kg body weight; Calbiochem; EMD Biosciences) (or vehicle-only drinking water—and then sacrificed at 3 months. Mice were maintained under specific pathogen-free conditions at the animal facility of Yale University School of Medicine. Animal protocols were reviewed and approved by the Animal Care and Use Committee at Yale University. Total antioxidant capacity was measured in cell-free BAL and serum using the Quantitative Assay for Total Antioxidant Potential kit (Oxis International Inc.) according to the manufacturer's instructions. […] Bathocuproine selectively forms a 2:1 complex with Cu^+, which has a maximum absorbance at 490 nm. A standard of a known uric acid concentration was used to create a calibration curve. Results are expressed as μM copper-reducing equivalents.

Tlr4−/− mice [2] = test: Elastase inhibitory capacity (EIC) in Tlr4−/− mice on antioxidant therapy; format: in vivo, mouse; conditions: NAC 1 g/kg or apocynin 3 mg/kg in drinking water, BAL, 3 months
Excerpt: Tlr4^-/- and MyD88^-/- mice have been previously described (Zhang X., et al., 2005, J. Immunol. 175:4834-4838; Adachi O., et al., 1998, Immunity. 9:143-150; Hoshino K., et al., 1999, J. Immunol. 162:3749-3752). TLR4-deficient mouse lines C3H/HeJ and C57BL/10ScNJ and their respective controls were purchased from The Jackson Laboratory. C57BL/6J Tlr4^-/- mice were generated after greater than 10 generations of backcrossing onto a C57BL/6J background. WT littermates were used as controls. For antioxidant therapy, Tlr4^-/- mice were randomized into 3 groups at 3 weeks of age-NAC (1 g/kg body weight; Sigma-Aldrich) (apocynin (3 mg/kg body weight; Calbiochem; EMD Biosciences) (or vehicle-only drinking water-and then sacrificed at 3 months. Mice were maintained under specific pathogen-free conditions at the animal facility of Yale University School of Medicine. Animal protocols were reviewed and approved by the Animal Care and Use Committee at Yale University. EIC was assessed in BAL and serum using previously described methods (Klumpp T. et al., 1979, Clin. Chem. 25:969-97; […]., et al., 2001, Am. J. Respir. Crit. Care Med. 164:886-890). […] EICs against PPE (type III; Sigma-Aldrich) in BAL and serum were determined using succinyl-[…]-nitroanilide (SAPNA; Sigma-Aldrich) as the elastase substrate. EIC was expressed as percentage of enzyme activity inhibited by serum or BAL samples. […]

Tlr4−/− mice [3] = test: Reduced GSH/oxidized GSH in BAL of Tlr4−/− mice on antioxidant therapy; format: in vivo, mouse; conditions: NAC 1 g/kg or apocynin 3 mg/kg in drinking water, 3 months
Excerpt: (§1) Tlr4^−/− and MyD88^−/− mice have been previously described (Zhang X., et al., 2005, J. Immunol. 175:4834-4838; Adachi O., et al., 1998, Immunity. 9:143-150; Hoshino K., et al., 1999, J. Immunol. 162:3749-3752). TLR4-deficient mouse lines C3H/HeJ and C57BL/10ScNJ and their respective controls were purchased from The Jackson Laboratory. C57BL/6J Tlr4^−/− mice were generated after greater than 10 generations of backcrossing onto a C57BL/6J background. WT littermates were used as controls. For antioxidant therapy, Tlr4^−/− mice were randomized into 3 groups at 3 weeks of age—NAC (1 g/kg body weight; Sigma-Aldrich) (apocynin (3 mg/kg body weight; Calbiochem; EMD Biosciences) (or vehicle-only drinking water—and then sacrificed at 3 months. Mice were maintained under specific pathogen-free conditions at the animal facility of Yale University School of Medicine. Animal protocols were reviewed and approved by the Animal Care and Use Committee at Yale University. The ratio of reduced GSH to oxidized GSH was measured in cell-free BAL using GSH/GSSG-412 kit (Oxis International Inc.) according to the manufacturer's instructions.

Tlr4−/− mice [4] = test: Emphysema (lung volume, chord length, histology) in Tlr4−/− mice on antioxidant therapy; format: in vivo, mouse; conditions: NAC 1 g/kg or apocynin 3 mg/kg in drinking water from 3 weeks, sacrificed at 3 months
Excerpt: as §1, with “University. Mice were anesthetized, the trachea was cannulated, and the lungs were removed and inflated with PBS at 25 cm H2O.” for “University.”, “The size” for “The ratio”, “of the lung” for “of reduced GSH to oxidized GSH”, “was evaluated by volume displacement. Hematoxylin and eosin (H&E) or periodic acid-Schiff with diastase (PAS) staining was performed after pressure fixation with Streck solution (Streck Laboratories)” for “was measured”, “in” for “in cell-free BAL using GSH/GSSG-412 kit (Oxis International Inc.) according to”, “the Research Pathology Laboratory at Yale University. […]” for “the manufacturer's instructions.”

[5] = tested on: elastase- and cigarette smoke-induced emphysema; conditions: aerosolized; cited from earlier work

## COc1cc(C(C)=O)ccc1O [apocynin]
Tlr4−/− MLECs
  elastolytic activity in Tlr4−/− MLECs: reversed to levels achieved by the broad-acting antioxidant NAC
Tlr4−/− mice [1]
  total antioxidant content in BAL: increased the total antioxidant content in BAL
  total antioxidant content in serum: increased the total antioxidant content
Tlr4−/− mice [2]
  EIC: an increase in the EIC
Tlr4−/− mice [3]
  GSH levels (reduced GSH/oxidized GSH ratio): increased GSH levels
Tlr4−/− mice [4]
  TLR4-mediated emphysema (lung volume, mean linear chord length, histology): prevented TLR4-mediated emphysema

## CC(=O)N[C@@H](CS)C(=O)O [NAC]
Tlr4−/− MLECs
  elastolytic activity in Tlr4−/− MLECs: reversed
Tlr4−/− mice [1]
  total antioxidant content in BAL: increased the total antioxidant content in BAL
  total antioxidant content in serum: increased the total antioxidant content
Tlr4−/− mice [2]
  EIC: an increase in the EIC
Tlr4−/− mice [3]
  GSH levels (reduced GSH/oxidized GSH ratio): increased GSH levels
Tlr4−/− mice [4]
  TLR4-mediated emphysema (lung volume, mean linear chord length, histology): prevented TLR4-mediated emphysema

## Hyaluronan [HA]
[5]
  protection against emphysema: protects against elastase- and cigarette smoke-induced emphysema

## c1ccc2c(c1)[I+]c1ccccc1-2 [DPI, diphenylene iodonium]
Tlr4−/− MLECs
  elastolytic activity in Tlr4−/− MLECs: reversed to levels achieved by the broad-acting antioxidant NAC
